Data set [1] relates to reserpine-induced blepharospasm. As to the kind of experiment: antagonism to reserpine-induced blepharospasm. It counts as in vivo, male mice. As to conditions: Mus musculus, po, 3 h, read-out: Reserpine antagonism ED50, Blepharospasm. Here is the method: (§1) The antidepressant activity of the ergoline derivatives according to the invention can be evaluated by antagonism to reserpine-induced blepharospasm and hypothermia.
(§2) The tests were performed in an air-conditioned room at a constant termperature of 19°±1° C. Randomized groups of male mice were respectively treated by gavage with appropriate screening doses (from a maximum of 25 mg/kg below) of the test compounds, suspended in the vehicle (Methocel 0.5%; 1 ml/100 g b.w.), or with the vehicle alone. One hour later the animals received an i.p. injection of reserpine (1.5 mg/kg; 1 ml/100 g b.w.), and one of the control groups the same volume of the vehicle alone (blank controls).
(§3) Three hours after pretreatments, i.e. two hours after reserpine or vehicle treatments, blepharospasm was evaluated in scores as proposed by Rubin et al. (J. Pharmacol. 120, 125 (1957)). Two hours after the above mentioned evaluation the rectal temperature of the animals was recorded by an appropriate probe connected to a digital thermometer (Ellab DU-3).

Data set [2] deals with reserpine-induced hypothermia. As to the kind of experiment: antagonism to reserpine-induced hypothermia. It counts as in vivo, male mice. To be noted: Mus musculus, po, 5 h; mice; p.o. by gavage 1 h before reserpine 1.5 mg/kg i.p.; rectal temperature 2 h after blepharospasm evaluation. As to the method: as §1, §2, §3
Data set [3] is described as follows: orientative acute toxicity. To be noted: in vivo, po.

This note sets out measurements from US4675404A, “8-pyridazinylcarbamoyl ergolines” (Farmitala Carlo Erba S.p.A., priority 1981, dated 1987).

Like-named read-outs stand apart in the source and are kept apart here.

What is called ED50 is the midpoint of the dose-response relation. By LD50 is commonly meant the dose at which mortality reaches 50%. High values mean a less toxic substance, low ones a more toxic substance. Take `Cc1nnc(NC(=O)[C@@H]2C[C@@H]3c4cccc5[nH]c(C)c(c45)C[C@H]3N(C)C2)s1` [Example 16, 2,6-dimethyl-8β-[2-(5-methyl-1,3,4-thiadiazolyl)-carbamoyl]-ergoline]: the values for the median effective dose (ED50) in data set [1] and in data set [2] were 1 mg/kg and 1.7 mg/kg, respectively. For the same molecule, in data set [3], the median lethal dose (LD50) was over 800 mg/kg.

As for `Cc1[nH]c2cccc3c2c1C[C@@H]1[C@@H]3C[C@@H](C(=O)Nc2ccc(Cl)nn2)CN1C` [Example 4, 2,6-dimethyl-8β-(6-chloro-3-pyridazinyl-carbamoyl)-ergoline], the 50% effective dose (ED50) in data set [1] worked out at 0.2 mg/kg; in data set [2], 0.6 mg/kg. For the same molecule, the median lethal dose (LD50) in data set [3] is over 300 mg/kg.

Take `Cc1nnc(NC(=O)[C@@H]2C[C@@H]3c4cccc5[nH]cc(c45)C[C@H]3N(C)C2)s1` [Example 10, 6-methyl-8β-[2-(5-methyl-1,3,4-thiadiazolyl)-carbamoyl]-ergoline]: the ED50 in data set [1] worked out at 3.5 mg/kg; in data set [2], 3.1 mg/kg. Besides, in data set [3], the median lethal dose (LD50) was over 600 mg/kg.

In the case of `CN1C[C@H](C(=O)Nc2nccs2)C[C@@H]2c3cccc4c3c(cn4C)C[C@H]21` [1,6-dimethyl-8β-(2-thiazolyl-carbamoyl)-ergoline, reference compound], the ED50 was determined as 7 mg/kg in data set [1] and 15 mg/kg in data set [2].

Turning to `C=CCN1C[C@H](C(=O)Nc2ccc(Cl)nn2)C[C@@H]2c3cccc4[nH]cc(c34)C[C@H]21` [Example 5, 6-allyl-8β-(6-chloro-3-pyridazinyl-carbamoyl)-ergoline], the results for the 50% effective dose (ED50) in data set [1] and in data set [2] were 3.6 mg/kg and 4.5 mg/kg, respectively. The LD50 in data set [3] is over 600 mg/kg.

Turning to `CCCN1C[C@H](C(=O)Nc2nccs2)C[C@@H]2c3cccc4[nH]cc(c34)C[C@H]21` [Example 7, 6-propyl-8β-(2-thiazolyl-carbamoyl)-ergoline], the values for the ED50 in data set [1] and in data set [2] were 0.5 mg/kg and 0.6 mg/kg, respectively. The LD50 in data set [3] was over 300 mg/kg.

Regarding `C=CCN1C[C@H](C(=O)Nc2nccs2)C[C@@H]2c3cccc4[nH]cc(c34)C[C@H]21` [Example 6, 6-allyl-8β-(2-thiazolyl-carbamoyl)-ergoline], the values for the ED50 in data set [1] and in data set [2] were 2.5 mg/kg and 4 mg/kg, respectively. In data set [3], this molecule came in with an LD50 of over 300 mg/kg.

Take `CN(C)CCCN1c2ccccc2CCc2ccccc21` [Imipramine, reference compound]: the 50% effective dose (ED50) came to 8.1 mg/kg in data set [1] (mice, p.o. by gavage 1 h before reserpine 1.5 mg/kg i.p., scored 2 h after reserpine) and 18.2 mg/kg in data set [2].
